Key:
[1] = system: ASIC3 currents in CHO cells expressing alone ASIC3, but not expressing PAR2; test: Whole-cell patch clamp, CHO cells expressing ASIC3 alone (no PAR2); format: cell-based, Chinese hamster; conditions: 10^−5 M; P > 0.1; n = 10
Procedure: ASIC3, ASIC1a, ASIC1b, ASIC2b, and PAR2 complementary DNAs (cDNAs) were used for heterologous expression in CHO cells as described previously (Wang et al., 2013). In brief, CHO cells were cultured at 37 °C in a humidified atmosphere of 5% CO2 and […] and passaged twice a week. Transient transfection of CHO cells was performed using HilyMax liposome transfection reagent (Dojindo Laboratories). CHO cells were maintained in F-12 Nutrient Mixture (added 1.176 g of NaHCO3/L medium) supplemented with 10% fetal bovine serum and 1% gluta-MAXTM-1 (100×; Invitrogen). When ASIC3 and PAR2 cDNAs were co-transfected, the ratio was kept at 1:1. All plasmids used contained, in addition to the desired ASIC3 cDNA, the coding sequence for enhanced green fluorescent protein to aid identification of transfected cells. Electrophysiological measurements were performed 24–48 h after transfection.
Whole-cell patch clamp and voltage clamp recordings were carried out at room temperature (22–25 °C) using a MultiClamp-700B amplifier and Digidata-1440A A/D converter (Axon Instruments, CA, USA). […]
(§1) Drugs purchased from Sigma and used in the experiments include hydrochloric acid, 2-furoyl-LIGRLO-NH2 (a PAR2-activating peptide (PAR2-AP)), trypsin, FSLLRY-NH2, APETx2, and capsazepine. […] The application pipette tips were positioned ∼30 μm away from the recorded neurons. […]

[2] = system: ASIC3-like currents in rat DRG neurons; test: Voltage clamp of proton-evoked ASIC3-like currents in acutely isolated rat DRG neurons; format: cell-based; conditions: 10^−5 M for 1 min; capsazepine 10 μM present; −60 mV; n = 9
From the text: The experimental protocol was approved by the animal research ethics committee of Hubei University of Science and Technology (No. 2016–67). All procedures conformed to international guidelines on the ethical use of animals, and every effort was made to minimize the number of animals used and their sufferings. Five- to 6-week-old Sprague–Dawley male rats were anesthetized with 7% chloral hydrate and then decapitated. The DRGs were taken out and transferred immediately into Dulbecco’s modified Eagle’s medium (DMEM, Sigma) at pH 7.4. After the removal of the surrounding connective tissues, the DRGs were minced with fine spring scissors and the ganglion fragments were placed in a flask containing 5 ml of DMEM in which trypsin (type II-S, Sigma) 0.5 mg/ml, collagenase (type I-A, Sigma) 1.0 mg/ml, and DNase (type IV, Sigma) 0.1 mg/ml had been dissolved and incubated at 35 °C in a shaking water bath for 25–30 min. Soybean trypsin inhibitor (type II-S, Sigma) 1.25 mg/ml was then added to stop trypsin digestion. The incubating solution was then replaced by external solution. Dissociated neurons were placed into a 35-mm Petri dish and kept for at least 1 h in normal external solution before the start of electrophysiological experiments. After plating of the DRG neurons, the neurons were used for experiments within 24 h. The neurons selected for electrophysiological experiment were 15–35 μm in diameter.
Whole-cell patch clamp and voltage clamp recordings were carried out at room temperature (22–25 °C) using a MultiClamp-700B amplifier and Digidata-1440A A/D converter (Axon Instruments, CA, USA). Recording pipettes were pulled using a Sutter P-97 puller (Sutter Instruments, CA, USA). The micropipettes were filled with internal solution containing (mM) KCl 140, MgCl2 2.5, HEPES 10, EGTA 11, and ATP 5; its pH was adjusted to 7.2 with KOH, and osmolarity was adjusted to 310 mOsm/L with sucrose. Cells were bathed in an external solution containing (mM) NaCl 150, KCl 5, CaCl2 2.5, MgCl2 2, HEPES 10, D-glucose 10; its osmolarity was adjusted to 330 mOsm/L with sucrose and its pH to 7.4. The resistance of the recording pipette was in the range of 3–6 MΩ. A small patch of membrane underneath the tip of the pipette was aspirated to form a giga seal, and then, a negative pressure was applied to rupture it, thus establishing a whole-cell configuration. The series resistance was compensated for by 70–80%. The adjustment of capacitance compensation was also done before recording the membrane currents. […]
as §1

## 2-furoyl-LIGRLO-NH2 [PAR2-AP]
[1]
  effect on I pH 6.6 in ASIC3-transfected CHO cells without PAR2: Neither PAR2-AP nor trypsin had an effect
[2]
  increase of peak amplitude of I pH 6.6 in DRG neurons after agonist pretreatment: 57.1 ± 9.8%

— paper PMC5534107, “Sensitization of ASIC3 by proteinase-activated receptor 2 signaling contributes to acidosis-induced nociception” (Journal of Neuroinflammation, 2017)
